From patent US11612634B2 (priority 2020, dated 2023)
“Also recorded” adds a separate entry of the source.

What was measured:
[1] = tested on: Carr-induced inflammatory pain rat model; assay: Analgesic effect on mechanical hyperalgesia (PWT) in Carr-induced inflammatory pain rat model; assay type: in vivo
Experimental: The mechanical hyperalgesia of rats was measured by 38500-pressure application measurement (PAM) system (Ugo Basile Biological Research Apparatus, Comerio-Varese, Italy), which consisted of a hand-held part and an integrated electronic part. The hand-held part was a force sensor which was designed according to a Randall-Selitto algesimeter. The integrated electronic part was configured to automatically record a maximum PWT applied to the left hind paw of the rats.
The Carr-induced inflammatory pain model was built according to a published method (Alessandri-Haber N, et al. Neurosci. Vol 29(19), pp. 6217-6288, 2009) for evaluating an analgesic effect of drugs administered by intraplantar injection. […] Those rats with a PWT lower than 100 gf were considered to be a desired Carr-induced inflammatory pain model, those rats with the PWT higher than 100 gf was removed.
(S1) A total of 18 healthy adult SD rats, weighing 180-220 g, were selected, numbered on tails and placed in the same cage.
(S2) The rats were maintained in a measuring room for 2 h for adaptation.
The measurement was repeated 3-5 times for each rat with an interval of 5-10 min. The results of multiple PWT measurements were averaged as the Baseline (BL) (unit: g). After that, 6 μL of 1 wt % Carr was intradermally injected into the plantar surface of the hind paw to build an inflammatory pain rat model.
(S4) The PWT of the left hind paw of each rat was measured 1 h after the Carr injection. Rats with a higher inflammatory threshold and rats with a lower inflammatory threshold were mixed and equally divided into three groups (group A, group B and group C), each for six rats, such that any two groups of rats had similar distribution of inflammatory threshold. The groups A, B and C were intradermally injected with normal saline, 5 mg/kg of morphine and 2 μg/kg of the short peptide P10581, respectively, at the plantar surface of the left hind paw. 1 h later, the PWT of the left hind paw of the rats in each group was measured 3-5 times at an interval of 5-10 min. The multiple PWT measurement results were averaged as the practical PWT (unit: g). Then the drug was injected every 2 h according to the above-mentioned administration dose and time, and the corresponding PWT was recorded (six injections in total).
(1) 24 healthy adult SD rats, weighing 180-220 g, were selected, reinjected with 6 μL of a 1 wt % Carr solution and divided into 4 groups randomly and averagely (i.e., groups A-D). The group A was injected with normal saline; the group B was intradermally injected with 0.1 μg/kg of the short peptide P10581 through the plantar surface of the left hind paw; the group C was intradermally injected with 0.1 μg/kg of the short peptide P10581 and then with 5 mg/kg of morphine 30 min later through the plantar surface of the left hind paw; and the group D was intradermally injected with 0.05 μg/kg of the short peptide P10581, and then with 5 mg/kg of morphine 30 min later through the plantar surface of the left hind paw. 1 h later, the PWT of each group was recorded when the mechanical withdrawal of the left hind paw occurred, and each rat was measured 3-5 times at an interval of 5-10 min.
(2) The drug was injected every 2 h according to the above-mentioned administration dose and time (seven times in total), and the PWT was recorded.
(S1) A total of 20 healthy adult SD rats (half male and half female), weighing 180-220 g, were selected, numbered on tails and transferred to the same cage.
(S4) The PWT of the left hind paw of each rat was measured 1 h after the Carr injection.

[2] = tested on: bone cancer pain (BCP) rat model; assay: Analgesic effect on mechanical hyperalgesia (PWT) in BCP rat model; assay type: in vivo; details: for analgesic effect on BCP, low dose: repeated
Experimental: The tumor cell implantation (TCI) surgery was performed according to the method proposed by Medhurst S J, et al (Medhurst S. J., Walker K., Bowes M., Kidd B. L., Glatt M., Muller M., et al. (2002). A rat model of bone cancer pain. Pain 96 129-140). Walker 256 mammary gland carcinoma cells were transferred from a liquid nitrogen tank, thawed quickly in a 37° C. water bath and loaded into a centrifugal tube. Then the cells were added with an appropriate amount of normal saline and centrifuged at 1200 r/min for 6 min. The supernatant was discarded, and the cells were washed again, and suspended with phosphate buffered saline (PBS) to 1×10^7/mL. Young female SD rats, weighing 90-100 g, were intraperitoneally injected with 0.5 mL of mammary gland carcinoma cells, and a large amount of ascites occurred after 6-7 days of the injection. 10 mL of ascites was extracted and centrifuged for 5 min. The precipitate was washed with normal saline and then diluted with PBS to 1×10^5/mL. The rats were anesthetized with 10% chloral hydrate and shaved, and a 1-cm incision was made in the upper half skin of the right tibia to expose the bone surface with a minimal damage to the surrounding muscle or blood vessels. The bone was pierced with a 4 # needle at 5 mm below a knee joint distal to an epiphysial growth plate, and the needle was inserted to a depth so that it can be pushed into the medullary cavity. The needle was then removed, and a 10 […] needle containing cells to be injected was inserted into the medullary cavity, determining whether the needle was located in the medullary cavity by withdrawal. 5 mL (1×10^5/mL) of cancer cells were injected into the medullary cavity, and whether there are cells or blood leaking out from the injection site was observer.
The needle was kept in the medullary cavity for 1 min and then was withdrawn to enable the full cell spreading, and the injection site was pressed by a cotton swab for 1 min and closed with bone cement. The wound was sutured and treated with penicillin powder. The PWT was measured 3 days after modeling, where those rat models with a significant lower PWT were considered as successful BCP rat models, and the undesirable models were removed.
(S1) Healthy adult SD rats, weighing 180-220 g, were selected, numbered on tails and transferred to the same cage (15 rats in total).
(S2) The rats were maintained in the measuring room for 2 h for adaptation.
The measurement was repeated 3-5 times for each rat with an interval of 5-10 min, and the results were averaged. The rats were allowed to rest for several hours to build a BCP model.
Those unsuccessful models were removed, and on the 22nd day after modeling, the successfully-established models were randomly divided into 3 groups, where the groups A-C were subcutaneously with normal saline, […], respectively. 1.5 h later, the PWT of the right hind paw of each group was measured. Each rat was measured 3-5 times with an interval of 5-10 min, and the PWTs were averaged as the practical PWT (unit: g). The drug administration was performed twice a day (at 9:30 a.m. and 4:30 p.m.) for consecutive 4 days, and the PWT of each group before and after administration was measured in the morning every day. […]

[3] = 2 μg/kg i.d. plantar, every 2 h, six injections
[4] = 14.4 μg/kg, twice a day, 4 days

Compound | analgesic effect / tolerance after repeated injection ([1]; rat, in vivo) | analgesic effect / tolerance after repeated injection ([2]; rat, in vivo) | analgesic effect on BCP ([2]; rat, in vivo) | analgesic effect on hyperalgesia, low dose ([1]; 0.1 μg/kg i.d., every 2 h, seven injections) | duration of analgesic effect ([1]; 2 μg/kg i.d. plantar, every 2 h) | analgesic effect on Carr-induced inflammatory pain threshold (PWT) [1, 3] | analgesic tolerance after repeated injection [1, 3] | analgesic effect on BCP, low dose ([2]; 0.2 μg/kg S.C.) | analgesic effect on BCP, low dose ([2]; 0.4 μg/kg S.C.) | analgesic effect on BCP [2, 4] | analgesic tolerance after repeated injection [2, 4]
CN1CC[C@]23c4c5ccc(O)c4O[C@H]2[C@@H](O)C=C[C@H]3[C@H]1C5 [morphine, reference compound] | gradually declined analgesic effect with the increase in the number of injections | disappeared at day 4; also recorded: completely lost the analgesic effect on BCP | significantly alleviated |  |  |  |  |  |  |  | 
WKCNPNDDKCCRPKLKC [P10581] |  |  |  | no relieving effect on the hyperalgesia in rats | more than 12 h | completely reverse the Carr-induced inflammatory pain threshold | without developing the analgesic tolerance | no analgesic effect | no analgesic effect on BCP | significantly alleviate the BCP | without developing the analgesic tolerance
